Results published in patent publication US6630499B1, “Control of arthropods in animals” (Aventis CropScience, S.A., priority 1998, dated 2003).

How the values were obtained:
Format in all cases: in vivo
[1] = Emesis in treated cats; settings: cats, 20 mg/kg
Description: (§1) By the term “emesis” is meant vomiting. Generally an emetic substance elicits emesis in less than 24 hours after administration, usually less than 8 hours, more usually less than 2 hours. By the term “substantially non-emetic” is meant that, generally, when a compound or composition of the invention is administered to a population of animals, more than 70% (or at least ⅔) of the animals are free of emesis. Preferably, more than 80%, most preferably more than 90%, of said population is free of emesis.
(§2) In the animals treated with the compounds above, there was substantially no emesis after 2, 8 and 24 hours. Generally long-term control of fleas and ticks was provided in dogs. In the cats treated, there was commercially acceptable control of fleas for at least one day post treatment.
(§3) The compounds listed below were formulated and tested as described in Biological Example 1, again at the dosage level of active ingredient of 10 mg/kg in dogs and 20 mg/kg in cats. Results at 1 DPT (day post-treatment) are tabulated below, where the compound numbers are the same as those listed in Tables 1, 2, 4, 5, 6, 7, 8, 9, 10, 11, 12 and 13 hereinabove.

[2] = system: ticks (Rhipicephalus sanguineus); experiment: Control of ticks on treated dogs (Biological Examples 1-3); settings: dogs, 10 mg/kg, 30 mg/mL in 1:1 dimethyl sulfoxide/corn oil, 1 day post-treatment, versus placebo group
Description: (§4) All dogs were infested with cat fleas (Ctenocephalides felis) and with ticks (Rhipicephalus sanguineus) 1 day prior to administration of the compound. Cats were only infested with fleas. The initial flea and tick counts were performed 1 day after the administration of the compounds. At 7, 14, 21 and 28 days after treatment the dogs were re-infested with ticks and 8, 15, 22 and 29 days after treatment the dogs and cats were re-infested with fleas. At 1, 9, 16, 23 and 30 days after treatment the control of fleas and ticks in treated dogs and cats was determined versus a group of infested dogs and cats which received a placebo consisting of a 1:1 volume/volume solution of dimethyl sulfoxide and corn oil. To determine the efficacies of the compounds, the arthropods were combed from the animals and counted.
as §3
(§5) Testing was carried out as described in Biological Example 1. […] The Huang et al compound was deemed to have insufficient activity to be tested in cats.

[3] = Emesis in treated dogs; settings: dogs, 10 mg/kg
Description: as §1, §2, §3

[4] = system: cat fleas (Ctenocephalides felis); experiment: Control of cat fleas on treated cats (Biological Examples 1-3); settings: cats, 20 mg/kg, 30 mg/mL in 1:1 dimethyl sulfoxide/corn oil, 1 day post-treatment, versus placebo group
Description: as §4, §3, §5

[5] = system: cat fleas (Ctenocephalides felis); experiment: Control of cat fleas on treated dogs (Biological Examples 1-3); settings: dogs, 10 mg/kg, 30 mg/mL in 1:1 dimethyl sulfoxide/corn oil, 1 day post-treatment, versus placebo group
Description: as §4, §3, §5

SMILES	% Emesis [1] [%]	% Control 1 DPT (Fleas/Ticks): Ticks [2] [%]	% Emesis [3] [%]	% Control 1 DPT (Fleas) [4] [%]	% Control 1 DPT (Fleas/Ticks): Fleas [5] [%]
CN(C)C=Nc1c(SC(F)(F)F)c(C#N)nn1-c1c(Cl)cc(C(F)(F)F)cc1Cl [Compound 219, 3-cyano-1-(2,6-dichloro-4-trifluoromethylphenyl)-5-N′-dimethylaminomethylideneamino-4-trifluoromethylthiopyrazole]	25	80	33	100	97
N#Cc1nn(-c2c(Cl)cc(C(F)(F)F)cc2Cl)c(N=CNCC(F)(F)F)c1S(=O)(=O)C(F)(F)F [Compound 230]	0	80	0	98	100
CC(=O)O.N#Cc1nn(-c2c(Cl)cc(C(F)(F)F)cc2Cl)c(N=CNCC(F)(F)F)c1SC(F)(F)F [Compound 232]	0	35	0	100	99
N#Cc1nn(-c2c(Cl)cc(C(F)(F)F)cc2Cl)c(N=CNCC(F)(F)F)c1SC(F)(F)F.O=C(O)CC(O)(CC(=O)O)C(=O)O [Compound 233]	0	77	0	95	100
